From patent publication US9211310B2, “Use of a Chinese medicine composition in preparing medicaments for treating secondary prevention of myocardial infarction” (TASLY PHARMACEUTICAL GROUP CO., LTD, priority 2010, dated 2015)

Tested on: patients after acute myocardial infarction
Assay: Life quality, Seattle Angina Questionnaire (SAQ), same clinical trial
Format: in vivo, human
Details: FAS; Baseline
Excerpt: 3508 patients who were in accordance with the diagnostic standards of AMI for 28 days to 2 years and differentiated as Qi deficiency and blood stagnation syndrome by TCM were studied. 0.5 g Chinese medicine composition prepared by the method of EXAMPLE 1 (Coded as QSYQ) was administrated half an hour after meal, 3 times per day.
There were 19 questions in the Seattle angina questionnaire (SAQ), including 5 parts: physical limitation (PL), anginal stability (AS), anginal frequency (AF), treatment satisfaction (TS) and disease perception (DP). After being given necessary explanation by doctors, the questions were answered independently by patients.
They included the overall survival time, angina pectoris score, TCM symptom score and life quality score, where angina pectoris score, TCM symptom score and life quality score were evaluated at randomization, in 1st, 3rd, 6th, 9th, 12th month after treatment and 18th month after follow-up.
All evaluation results of SAQ were described during the period of observation, and Wilcoxon rank sum test was used for inter-group comparison.
The evaluation results in the SAQ were depicted in different observations, and inter-group comparison was tested by Wilcoxon Rank-sum test.

With `CC(=O)Oc1ccccc1C(=O)O` [Control group, aspirine] the “10th question: Mostly satisfied, patients (%)” value was “(16.89%)”, the “10th question: Partly satisfied, patients (%)” value was “(31.19%)” and the “11th question: Continuously worried, patients (%)” value was “(9.59%)”. For the same molecule, the “11th question: No worried, patients (%)” value was “(4.13%)”, the “11th question: Occasionally worried, patients (%)” value was “(40.93%)” and the “11th question: Often worried, patients (%)” value was “(23.88%)”. The “11th question: Seldom worried, patients (%)” value was “(21.47%)”, the “SAQ 4th question, 1-2 times per week: % of patients” value was “(19.80%)” and the “SAQ 4th question, 1-2 times per week: number of patients” value was 344. For the same molecule, the “SAQ 4th question, 1-3 times per day: % of patients” value was “(8.64%)”, the “SAQ 4th question, 1-3 times per day: number of patients” value was 150 and the “SAQ 4th question, <1 time per week: % of patients” value was “(10.13%)”. The “SAQ 4th question, <1 time per week: number of patients” value was 176, the “SAQ 4th question, Not used: % of patients” value was “(43.64%)” and the “SAQ 4th question, Not used: number of patients” value was 758. The “SAQ 4th question, ≧3 times per week: % of patients” value was “(16.87%)”, the “SAQ 4th question, ≧3 times per week: number of patients” value was 293 and the “SAQ 4th question, ≧4 times per day: % of patients” value was “(0.92%)”. For the same molecule, the “SAQ 4th question, ≧4 times per day: number of patients” value was 16, the “SAQ 5th question, Few: % of patients” value was “(18.88%)” and the “SAQ 5th question, Few: number of patients” value was 328. The “SAQ 5th question, Mild: % of patients” value was “(30.74%)”, the “SAQ 5th question, Mild: number of patients” value was 534 and the “SAQ 5th question, Moderate: % of patients” value was “(20.50%)”. For the same molecule, the “SAQ 5th question, Moderate: number of patients” value was 356, the “SAQ 5th question, None: % of patients” value was “(23.43%)” and the “SAQ 5th question, None: number of patients” value was 407. The “SAQ 5th question, Not medicated by doctors: % of patients” value was “(2.99%)”, the “SAQ 5th question, Not medicated by doctors: number of patients” value was 52 and the “SAQ 5th question, Severe: % of patients” value was “(3.45%)”. For the same molecule, the “SAQ 5th question, Severe: number of patients” value was 60, the “SAQ 6th question, Dissatisfied: % of patients” value was “(1.15%)” and the “SAQ 6th question, Dissatisfied: number of patients” value was 20. For the same molecule, the “SAQ 6th question, Highly satisfied: % of patients” value was “(15.33%)”, the “SAQ 6th question, Highly satisfied: number of patients” value was 267 and the “SAQ 6th question, Mostly dissatisfied: % of patients” value was “(6.54%)”. The “SAQ 6th question, Mostly dissatisfied: number of patients” value was 114, the “SAQ 6th question, Mostly satisfied: % of patients” value was “(45.52%)” and the “SAQ 6th question, Mostly satisfied: number of patients” value was 793. For the same molecule, the “SAQ 6th question, Partly satisfied: % of patients” value was “(31.46%)”, the “SAQ 6th question, Partly satisfied: number of patients” value was 548 and the “SAQ 7th question, Dissatisfied: % of patients” value was “(0.40%)”. For the same molecule, the “SAQ 7th question, Dissatisfied: number of patients” value was 7, the “SAQ 7th question, Highly satisfied: % of patients” value was “(20.40%)” and the “SAQ 7th question, Highly satisfied: number of patients” value was 355. For the same molecule, the “SAQ 7th question, Mostly dissatisfied: % of patients” value was “(4.60%)”, the “SAQ 7th question, Mostly dissatisfied: number of patients” value was 80 and the “SAQ 7th question, Mostly satisfied: % of patients” value was “(47.99%)”. The “SAQ 7th question, Mostly satisfied: number of patients” value was 835, the “SAQ 7th question, Partly satisfied: % of patients” value was “(26.61%)” and the “SAQ 7th question, Partly satisfied: number of patients” value was 463. The “SAQ Question 1-1 Mildly limited, number of patients” value was 34, the “SAQ Question 1-1 Mildly limited, percent of patients” value was “(1.95%)” and the “SAQ Question 1-1 Moderately limited, number of patients” value was 16. The “SAQ Question 1-1 Moderately limited, percent of patients” value was “(0.92%)”, the “SAQ Question 1-1 Not limited, number of patients” value was 1582 and the “SAQ Question 1-1 Not limited, percent of patients” value was “(90.92%)”. For the same molecule, the “SAQ Question 1-1 Other reasons, number of patients” value was 5, the “SAQ Question 1-1 Other reasons, percent of patients” value was “(0.29%)” and the “SAQ Question 1-1 Severely limited, number of patients” value was 1. For the same molecule, the “SAQ Question 1-1 Severely limited, percent of patients” value was “(0.06%)”, the “SAQ Question 1-1 Slightly limited, number of patients” value was 102 and the “SAQ Question 1-1 Slightly limited, percent of patients” value was “(5.86%)”. For the same molecule, the “SAQ Question 1-2 Mildly limited, number of patients” value was 46, the “SAQ Question 1-2 Mildly limited, percent of patients” value was “(2.64%)” and the “SAQ Question 1-2 Moderately limited, number of patients” value was 18. The “SAQ Question 1-2 Moderately limited, percent of patients” value was “(1.03%)”, the “SAQ Question 1-2 Not limited, number of patients” value was 1539 and the “SAQ Question 1-2 Not limited, percent of patients” value was “(88.45%)”. For the same molecule, the “SAQ Question 1-2 Other reasons, number of patients” value was 6, the “SAQ Question 1-2 Other reasons, percent of patients” value was “(0.34%)” and the “SAQ Question 1-2 Severely limited, number of patients” value was 2. For the same molecule, the “SAQ Question 1-2 Severely limited, percent of patients” value was “(0.11%)”, the “SAQ Question 1-2 Slightly limited, number of patients” value was 129 and the “SAQ Question 1-2 Slightly limited, percent of patients” value was “(7.41%)”. For the same molecule, the “SAQ Question 1-6: Mildly limited, patients (%)” value was “(20.89%)” and the “SAQ Question 1-6: Moderately limited, patients (%)” value was “(17.95%)”.
